{"source": "paper PMC11436104", "about": "(Toxins, 2024)", "origin": "cited, not measured here", "system": "rat primary astrocytes", "details": "cited from earlier work"}
{"substance": "MC-LF", "values": [{"measurement": "cytotoxicity in rat primary astrocytes", "result": "selective cytotoxicity"}]}
